In EP1484329A1, “Indole derivatives with apoptosis inducing activity” (Zentaris GmbH, priority 2003, dated 2004):
≈ marks a conversion by molar mass, not a printed value. Structures can show the parent of a compound that is named as a salt. Where two headings read alike, the source gives them in different places.

Tests used:
DU145 = experiment: XTT proliferation assay, DU145; assay type: cell-based, human; conditions: for EC50: Homo sapiens, DU-145, DU145, read-out: XTT Proliferationsassay, EC50 DU145
From the text: (§1) Die Substanzen 1,2, 4-6 wurden in einem Proliferationstest an etablierten Tumorzelllinien auf ihre anti-proliferative Aktivität hin untersucht (D.A. Scuderio et al. Cancer Res. 1988, 48, 4827-4833). Der verwendete Test bestimmt die zelluläre Dehydrogenase-Aktivität und ermöglicht eine Bestimmung der Zellvitalität und indirekt der Zellzahl. Bei den verwendeten Zelllinien handelt es sich um die humane Cervixkarzinom Zelllinie KB/HeLa (ATCC CCL17), die ovariale Adenokarzinomzelllinie SKOV-3 (ATCC HTB77), die humane Glioblastom Zelllinie SF-268 (NCI 503138) und die Lungenkarzinom Zelllinie NCI-H460 (NCI 503473). Des weiteren wurde zur Untersuchung der Zellzyklus-spezifischen Wirkung der Substanz ein RKOp27 Zellsystem verwendet (M. Schmidt et al. Oncogene19(20):2423-9, 2000). Bei RKO handelt es sich um eine humane Kolonkarzinomlinie, in der der Zellzyklusinhibitor p27 ^kip1 mittels des Ecdyson Expressionssystems induziert zur Expression gebracht und zu einem Zellzyklusarrest spezifisch in G2 geführt werden kann. Eine unspezifisch wirkende Substanz hemmt die Proliferation unabhängig davon, ob die RKO Zelle in G1 oder G2 arretiert ist oder nicht. Zellzyklus-spezifische Substanzen wie beispielsweise Tubulininhibitoren sind hingegen nur dann zytotoxisch, wenn Zellen nicht arretiert sind und der Zellzyklus durchlaufen wird. In Tabelle 1 ist die zytotoxische bzw. wachstumshemmende Aktivität der beschriebenen Verbindungen mit / ohne Expression von p27^kip1gezeigt. Die getesteten Verbindungen zeigten im induzierten Zustand von p27^kiP1 keine zytotoxische Aktivität. Die Ergebnisse zeigen eine sehr potente Hemmung der Proliferation ausgewählter Tumorzelllinien durch die genannten Substanzen. Tabelle 1:
(§2) Zur weiteren Charakterisierung wurden die Substanzen 1-6 an einem Panel von 7 humanen Tumorzelllinien auf ihre anti-proliferative Wirkung hin untersucht. Bei den untersuchten Zelllinien handelt es sich um die humanen Glioma Zelllinien A172 (ATCC CRL-1620) und U118 (ATCC HTB-15), die humane Lungenkarzinom Zelllinie A549, das humane epidermoide Karzinom A431 (ATCC CRL-2592), die humanen Prostatakarzinom Zelllinien DU145 (ATCC HTB-81) und PC3 (ATCC CRL-1435) und die humane Kolon Adenokarzinomzelllinie HT29 (ATCC HTB-38). Es handelt sich hierbei um sehr gut charakterisierte, etablierte Zelllinien, die von ATCC, ECACC bzw. NCI erhalten und in Kultur genommen wurden. Die in Tab. […]

RKOp27 = experiment: XTT proliferation assay, RKOp27 cell system with / without induced p27kip1 expression; assay type: cell-based; conditions: Homo sapiens
From the text: as §1, with “Substanzen.” for “Substanzen. Tabelle 1:”

A172 = experiment: XTT proliferation assay, A172; assay type: cell-based, human; conditions: for EC50: Homo sapiens, A 172, A172, read-out: XTT Proliferationsassay, EC50 A172
From the text: as §1, §2

LT12mdr = experiment: XTT proliferation assay, LT12mdr (resistant); assay type: cell-based; conditions: read-out: XTT Proliferationsassay, EC50 LT12mdr
From the text: as §1
(§3) Zur weiteren Charakterisierung wurden die Substanzen 1,2,4-6 gegenüber multi drug resistenten Zelllinien im Vergleich zu den nicht-resistenten Wildtypzelllinien untersucht.
(§4) Bei den untersuchten Zelllinien handelt es sich um die murine L1210, die akute myeloische Leukaemie Zelllinie LT12 und um die resistenten Linien L1210/mdr und LT12/mdr. Außerdem wurden die murine P388 Zelllinie (methyl-cholanthreneinduced lymphoid neoplasm) sowie die Doxorubicin-resistente P388 als Testsysteme herangezogen.

HT29 = experiment: XTT proliferation assay, HT29; assay type: cell-based, human; conditions: for EC50: Homo sapiens, HT-29, HT29, read-out: XTT Proliferationsassay, EC50 HT29
From the text: as §1, §2

SKOV-3 = experiment: XTT proliferation assay, SKOV-3; assay type: cell-based; conditions: Homo sapiens, SK-OV-3; read-out: XTT Proliferationsassay, EC50 SKOV3
From the text: as §1, with “Substanzen.” for “Substanzen. Tabelle 1:”

Rindertubulin = experiment: Inhibition of tubulin polymerisation in vitro; assay type: biochemical, Rind; conditions: Tubulin with 30% MAPs, mean of two independent experiments
From the text: In diesem Test wird durch Zyklen von Polymerisation und Depolymerisation aufgereinigtes Tubulin eingesetzt, welches durch Zugabe von GTP und Erwärmung zur Polymerisation gebracht wird. […]

KB/HeLa = experiment: XTT proliferation assay, KB/HeLa; assay type: cell-based; conditions: Homo sapiens, read-out: XTT Proliferationsassay, EC50 KB/Hela
From the text: as §1, with “Substanzen.” for “Substanzen. Tabelle 1:”

L1210 = experiment: XTT proliferation assay, L1210 (wild type); assay type: cell-based, murine; conditions: Mus musculus, L1210; read-out: XTT Proliferationsassay, EC50 L1210
From the text: as §1, §3, §4

P388 = experiment: XTT proliferation assay, P388 (wild type); assay type: cell-based, murine; conditions: Mus musculus, P388; read-out: XTT Proliferationsassay, EC50 P388
From the text: as §1, §3, §4

A431 = experiment: XTT proliferation assay, A431; assay type: cell-based, human; conditions: for EC50: Homo sapiens, A-431, A431, read-out: XTT Proliferationsassay, EC50 A431
From the text: as §1, §2

SF-268 = experiment: XTT proliferation assay, SF-268; assay type: cell-based; conditions: Homo sapiens, read-out: XTT Proliferationsassay, EC50 SF-268
From the text: as §1, with “Substanzen.” for “Substanzen. Tabelle 1:”

PC3 = experiment: XTT proliferation assay, PC3; assay type: cell-based, human; conditions: for EC50: Homo sapiens, PC-3, PC3, read-out: XTT Proliferationsassay, EC50 PC3
From the text: as §1, §2

P388ADR = experiment: XTT proliferation assay, P388ADR (doxorubicin-resistant); assay type: cell-based, murine; conditions: Mus musculus, P388/ADR; read-out: XTT Proliferationsassay, EC50 P388ADR
From the text: as §1, §3, §4

L1210VCR = experiment: XTT proliferation assay, L1210VCR (resistant); assay type: cell-based, murine; conditions: Mus musculus; read-out: XTT Proliferationsassay, EC50 L1210VCR
From the text: as §1, §3, §4

NCI-H460 = experiment: XTT proliferation assay, NCI-H460; assay type: cell-based; conditions: Homo sapiens, read-out: XTT Proliferationsassay, EC50 NCI-H460
From the text: as §1, with “Substanzen.” for “Substanzen. Tabelle 1:”

LT12 = experiment: XTT proliferation assay, LT12 (wild type); assay type: cell-based; conditions: Rattus norvegicus, LT12; read-out: XTT Proliferationsassay, EC50 LT12
From the text: as §1, §3, §4

A549 = experiment: XTT proliferation assay, A549; assay type: cell-based, human; conditions: for EC50: Homo sapiens, A549, A549, read-out: XTT Proliferationsassay, EC50 A549
From the text: as §1, §2

U118MG = experiment: XTT proliferation assay, U118MG; assay type: cell-based; conditions: Homo sapiens, U-118-MG; read-out: XTT Proliferationsassay, EC50 U118MG
From the text: as §1, §2

[1] = RKOP27, without expression of p27kip1, read-out: XTT Proliferationsassay, EC50 RKOP27
[2] = RKOP27 ind., p27kip1 expression induced (cells arrested), read-out: XTT Proliferationsassay, EC50 RKOP27 ind.

Cc1ccc2cc(NC(=O)C(=O)c3cn(Cc4ccc(Cl)cc4)c4ccccc34)ccc2n1 [Verbindung 1, 2-[1-(4-Chlor-benzyl)-1 H-indol-3-yl]-N-(2-methyl-chinolin-6-yl)-2-oxo-acetamid, reference compound]
EC50 (DU145): 0.329 µg/mL (≈ 0.725 µM) | EC50 (RKOp27; [1]): 0.23 µg/mL (≈ 0.507 µM) | EC50 (RKOp27; [2]): > 3.16 µg/mL | EC50 (A172): 0.165 µg/mL (≈ 0.363 µM) | EC50 (LT12mdr): 0.218 µg/mL (≈ 0.48 µM) | EC50 (HT29): 0.266 µg/mL (≈ 0.586 µM) | EC50 (SKOV-3): 0.174 µg/mL (≈ 0.383 µM) | Hemmung der Tubulin-Polymerisation, EC50 (Rindertubulin; listed as 1 (V)): 1.16 µg/mL | EC50 (KB/HeLa): 0.183 µg/mL (≈ 0.403 µM) | EC50 (L1210): 0.233 µg/mL (≈ 0.513 µM) | EC50 (P388): 0.13 µg/mL (≈ 0.286 µM) | EC50 (A431): 0.076 µg/mL (≈ 0.167 µM) | EC50 (SF-268): 0.261 µg/mL (≈ 0.575 µM) | EC50 (PC3): 0.199 µg/mL (≈ 0.438 µM) | EC50 (P388ADR): 0.212 µg/mL (≈ 0.467 µM) | EC50 (L1210VCR): 0.304 µg/mL (≈ 0.67 µM) | EC50 (NCI-H460): 0.344 µg/mL (≈ 0.758 µM) | EC50 (LT12): 0.133 µg/mL (≈ 0.293 µM) | EC50 (A549): 0.304 µg/mL (≈ 0.67 µM)

Cc1ccc2cc(NC(=O)C(=O)c3cn(Cc4ccc(Cl)cc4)c4ccccc34)ccc2n1 [Verbindung 3, 6-{2-[1-(4-Chlor-benzyl)-1 H-indol-3-yl]-2-oxo-acetylamino}-2-methyl-chinolin Hydrochlorid, reference compound]
XTT Proliferationsassay, EC50 DU145 (DU145; DU145, listed as 3 (V)): 0.426 µg/mL | XTT Proliferationsassay, EC50 A172 (A172; A172, listed as 3 (V)): 0.171 µg/mL | XTT Proliferationsassay, EC50 HT29 (HT29; HT29, listed as 3 (V)): 0.219 µg/mL | XTT Proliferationsassay, EC50 A431 (A431; A431, listed as 3 (V)): 0.075 µg/mL | EC50 (U118MG): 0.142 µg/mL | XTT Proliferationsassay, EC50 PC3 (PC3; PC3, listed as 3 (V)): 0.165 µg/mL | XTT Proliferationsassay, EC50 A549 (A549; A549, listed as 3 (V)): 0.405 µg/mL

O=C(Nc1ccc2[nH]ncc2c1)C(=O)c1cn(Cc2ccc(Cl)cc2)c2ccccc12 [Verbindung 6, 2-[1-(4-Chlor-benzyl)-1H-indol-3-yl]-N-(1H-indazol-5-yl)-2-oxo-acetamid]
EC50 (DU145): 0.506 µg/mL (≈ 1.18 µM) | EC50 (RKOp27; [1]): 0.148 µg/mL (≈ 0.345 µM) | EC50 (RKOp27; [2]): > 3.16 µg/mL | EC50 (A172): 0.342 µg/mL (≈ 0.797 µM) | EC50 (LT12mdr): 0.093 µg/mL (≈ 0.217 µM) | EC50 (HT29): 0.059 µg/mL (≈ 0.138 µM) | EC50 (SKOV-3): 0.144 µg/mL (≈ 0.336 µM) | Hemmung der Tubulin-Polymerisation, EC50 (Rindertubulin): 1.26 µg/mL | EC50 (KB/HeLa): 0.335 µg/mL (≈ 0.781 µM) | EC50 (L1210): 0.246 µg/mL (≈ 0.574 µM) | EC50 (P388): 0.175 µg/mL (≈ 0.408 µM) | EC50 (A431): 0.07 µg/mL (≈ 0.163 µM) | EC50 (U118MG): 0.097 µg/mL (≈ 0.226 µM) | EC50 (SF-268): > 3.16 µg/mL | EC50 (PC3): 0.093 µg/mL (≈ 0.217 µM) | EC50 (P388ADR): 0.231 µg/mL (≈ 0.539 µM) | EC50 (L1210VCR): 0.241 µg/mL (≈ 0.562 µM) | EC50 (NCI-H460): 0.233 µg/mL (≈ 0.543 µM) | EC50 (LT12): 0.084 µg/mL (≈ 0.196 µM) | EC50 (A549): 0.323 µg/mL (≈ 0.753 µM)

O=C1c2c(O)ccc(O)c2C(=O)c2c(NCCNCCO)ccc(NCCNCCO)c21 [mitoxantron, reference compound]
EC50 (P388ADR): 0.608 µg/mL (≈ 1.37 µM)

CC[C@]1(O)C[C@H]2CN(CCc3c([nH]c4ccccc34)[C@@](C(=O)OC)(c3cc4c(cc3OC)N(C=O)[C@H]3[C@@](O)(C(=O)OC)[C@H](OC(C)=O)[C@]5(CC)C=CCN6CC[C@]43[C@@H]65)C2)C1 [vincristine, reference compound]
Hemmung der Tubulin-Polymerisation, EC50 (Rindertubulin): 0.35 µg/mL
